The test system of one data set is human adult dermal cells. The data set is described as follows: Aderans Hair Patch Assay (hybrid patch assay) with cultured human adult dermal cells. In kind it is cell-based. The text has this: Trichogenic activity of populations of dermal cells can be determined by using the Aderans Hair Patch Assay™ (Zheng, Y., J Invest Dermatol, 124: 867-876 (2005)). In this assay dissociated dermal and epidermal cells are implanted into the dermis or the subcutis of an immunoincompetent mouse. Using mouse newborn skin cells, new hair follicles typically form in this assay within 8 to 10 days. The newly formed follicle manifests normal hair shafts, mature sebaceous glands, and a natural hair cycle. Although normal cycling hair follicles are formed in this assay, the assay primarily measures the ability of cells or combinations of cells to form new follicles. Mouse dermal cells are assayed in conjunction with mouse neonatal epidermal cells.
(§1) Trichogenic activity of populations of dermal cells was determined by the Aderans Hair Patch Assay™ (Zheng, Y., J Invest Dermatol, 124: 867-876 (2005)). In this assay dissociated dermal and epidermal cells are implanted into the dermis or the subcutis of an immunoincompetent mouse. Using mouse newborn skin cells, new hair follicles typically form in this assay within 8 to 10 days. The newly formed follicle manifests normal hair shafts, mature sebaceous glands, and a natural hair cycle. Although normal cycling hair follicles are formed in this assay, the assay primarily measures the ability of cells or combinations of cells to form new follicles. In the classical Patch assay mouse neonatal dermal cells were assayed in conjunction with mouse neonatal epidermal cells. In a modification of that assay human adult dermal cells are assayed in the presence of mouse newborn epidermal cells.
In the initial study four different concentrations of one of the Curls, Inc. Shh pathway agonist (agonist A-CUR-0201365) were used, 0, 0.005, 0.05 and 0.125 ug/ml (FIG. 2A). […] The number of hair follicles formed in the hair patch assay is greater when the cells are grown in the presence of the Shh pathway agonist.
To investigate if Shh pathway agonist can increase cell inductivity with short-term treatment (7 days before harvest); 3 patient samples were tested using agonist B. For each sample, the cells were treated with 0, 0.0125, 0.0375, 0.05 and 0.15 ug/ml of Shh pathway agonist B at the passage P1 or P2. P1 and P2 cells were then harvested after approximately 7 days and analyzed in the hybrid patch assay. […] Cells were treated for that 7 day period only, but not treated prior to that.

Another data set has as its system dermal cells. Briefly: Growth and yield of dermal cells in culture (population doubling time, number of cells). Format: cell-based, human. The text has this: FIG. 3A is a graph showing the population doubling time of dermal cells treated with the indicated amount of a Shh pathway agonist. FIG. 3B is a graph showing number of cells (millions) of dermal cells treated with Shh pathway agonist at confluence.
FIG. 5A is a graph showing the average number of cells (millions) in flasks using dermal cells treated with the indicated amount of Shh pathway agonist after one passage in culture. FIG. 5B is a graph showing the average number of cells (millions) in flasks using dermal cells treated with the indicated amount of Shh pathway agonist after two passages in culture. FIG. 5C is a graph of population doubling time (days) for dermal cells treated with the indicated amount of Shh pathway agonist after one passage in culture. FIG. 5D is a graph of population doubling time (days) for dermal cells treated with the indicated amount of Shh pathway agonist after two passages in culture.

A further data set relates to human fetal cells. Briefly: Aderans Hair Patch Assay with human fetal cell cultures. Format: cell-based. As to conditions: for effect on hair number: FIG. 9.
Description: FIG. 7 is a graph of the number of hair follicles formed from human fetal cell cultures in the Aderans Hair Patch Assay™ versus the indicated cell culture passage P0, P1, P2 or P3 in cells culture with a Shh pathway agonist. Each passage has a pair of columns with the left column corresponding to results obtained without treating the cells with an agonist and a right column showing results with cells treated with an agonist.
FIG. 8 is a graph of number of hair follicles formed from human fetal cell cultures in the Aderans Hair Patch Assay™ in untreated or treated cells at the indicated cell culture passage.
FIG. 9 is a graph of the number of hair follicles formed from human fetal cell cultures in the Aderans Hair Patch Assay™ in the indicated medium.
as §1
We have recently extended our study of the impact of SHH pathway agonist B (CUR-0236715) on hair inducing activity from human adult cells to human fetal cells, as well as mouse cells.
In another experiment, cells were initially cultured in medium without SHH pathway agonist. The SHH pathway agonist CUR-0236715 was only added to the culture at the beginning of a particular passage, and lasted for that passage only (P1 and P4 as shown in FIG. 8). Adding SHH pathway agonist B (CUR-0236715) at these later passages can still increase fetal cell trichogenicity.

Data set [1] has as its system mouse neonatal dermal cells. The data set is described as follows: Patch assay with mouse neonatal dermal cell culture. In kind it is cell-based. How it is done:
as §1
In addition to cultured human cells, the SHH pathway agonist B was added to mouse neonatal dermal cell culture.

As to `CNC1CCC(N(Cc2cc(-c3ccccc3)ccc2OC)C(=O)c2sc3ccccc3c2Cl)CC1` (stereo not drawn) [agonist A], the “hair follicles in the patch assay (per million cells injected) compared to non-treated cells” value in the data set on human adult dermal cells (cells grown in medium with agonist, 0.005-0.625 ug/ml, FIG. 2) is on record as “produced more hair follicles”. Moreover, the “trichogenicity with passage (P1 through P4)” value with human adult dermal cells (highest concentration, without agonist trichogenicity diminished) was “remained at a high level”. The “dose-response relationship of hair follicle number in patch assay” value with human adult dermal cells (increasing agonist concentration in the medium) is given as “increasing effect (hair follicle number in patch assay) with increasing Shh pathway agonist concentration”. Besides, the cell growth rate result in the data set with dermal cells (in the higher concentrations, FIG. 3) was “decreases”.

As to `CNC1CCC(N(Cc2cc(-c3ccc(NS(C)(=O)=O)nc3)ccc2OC)C(=O)c2sc3c(F)ccc(F)c3c2Cl)CC1` (stereo not drawn) [agonist B], in the data set with human adult dermal cells (7 day treatment only), the “short term results versus continuous treatment” value is “comparable to that of continuous treatment”. In addition, the “optimal concentration for hair follicle formation” value with human adult dermal cells (continuous treatment, at P2, FIG. 4B) came to 0.0375 µg/mL. In the data set with human adult dermal cells (continuous treatment, various agonist concentrations, FIG. 4), the “hair follicle number in patch assays” value is “increased hair follicle number”. Further, the “hair follicle numbers compared to the control” value with human adult dermal cells (short-term treatment (7 days before harvest), 0.0125-0.15 ug/ml, P1 or P2, 3 patient samples, FIGS. 6A and 6B) is recorded as “higher hair follicle numbers”. Also, in the data set on human adult dermal cells (short-term treatment (7 days), P1 and P2 cells), the optimal concentration is 0.0375 µg/mL. For the same compound, in the data set with dermal cells (all the concentrations tested, FIG. 5), the “adverse effect on cell growth or yield” value is given as “did not show any adverse effect”. In addition, the “increase in hair number” value with human fetal cells (37.5 ng/ml at P0, FIG. 7) is given as “more than 3 fold”. Further, the “effect on hair number” value with human fetal cells (Amniomax, Chang's media and culture medium of Osada et al.) is on record as “not significant”; with human fetal cells (agonist added to cell culture medium) it was “increase of hair number”. For the same compound, in the data set on human fetal cells (agonist only at P1 or P4), the “number of hair follicles versus cells consistently treated throughout the culture” value is on record as “equivalent”. Further, the “number of hair follicles formed versus no SHH control cells” value in the data set on human fetal cells (agonist only at P1 or P4, for that passage only, FIG. 8) is recorded as “about 5 fold”. Besides, the “increase of hair number at later passages” value in the data set on human fetal cells (cells continuously cultured in the presence of agonist, FIG. 7) is “extended to later passages (P3)”. In data set [1], the “size of hair follicles compared to non-treated cells” value is given as “increased significantly”. The “activity as indicated by the number of hair follicles formed in patch assay” value in data set [1] (preliminary data, FIG. 10) is on record as “increased activity”.

The values are drawn from US20120095445A1, “METHODS AND COMPOSITIONS FOR INCREASING TRICHOGENIC POTENCY OF DERMAL CELLS” (Aderans Research Institute, Inc., priority 2009, published 2012).
